Results published in patent US20260378560A1, “APPROACHES TO DESIGNING AND PERFORMING COMPRESSED BIOLOGICAL EXPERIMENTS AND SYSTEMS FOR IMPLEMENTING THE SAME” (EXVIVO LABS INC., priority 2023, published 2026).

Key:
[1] = tested on: SUP-B15; assay: ATP-based luminescence cell viability (CellTiter Glo), drug response score, SUP-B15; set-up: scale not given here; conditions: SUP-B15, screened individually (Compress: None)
[2] = tested on: JURKAT; assay: ATP-based luminescence cell viability (CellTiter Glo), drug response score, JURKAT; conditions: Target compression
From the text: (§1) As part of a screen, a drug could be screened at different concentrations ranging from a lowest concentration to a highest concentration. In such a scenario, multiple data structures may be obtained by the screening platform 210. […] With these multiple data structures, the analysis module 218 can generate a dose-response curve that describes the magnitude of the response of the biological target, as a function of exposure to different concentrations of the drug. Further, the analysis module 218 can calculate a metric that is indicative of the response of the biological target. In the event that the biological target is one of multiple biological targets that are introduced to the pools of drugs, the metric can be used by the screening platform 210 to better understand the relative magnitude of responses. One example of a metric is drug-response score (“DRS”). DRS can be calculated as a continuous function of multiple parameters of the non-linear dose-response curve, including the slope at the half-maximal effective concentration (also called “EC50”) and the top and bottom asymptotes of the dose-response curve. DRS can be calculated as follows: […]
(§2) where y is a continuous function of the variable dose x, a is the maximal response (i.e., the top asymptote of the curve), b is the slope of the curve, c is the IC50 (i.e., half-maximal inhibitory concentration), and d is the minimal response (i.e., the bottom asymptote of the curve). Other examples of metrics include those output by sigmoidal and Hill slide functions that, like DRS, incorporate multiple aspects of the dose-response curve into a continuous function.
(§3) Total cell viability was measured for each cancer cell line using an Adenosine TriPhosphate (“ATP”) assay, and more specifically an ATP-based luminescence assay (i.e., CellTiter Glo). Each cancer drug was screened at multiple concentrations ranging from one nanomolar (nM) to ten micromolar (UM) in order to generate a dose-response curve and calculate a drug response score (“DRS”) for each cancer cell line. The DRS was calculated as a continuous function of multiple parameters of the non-linear dose-response curve, including the slope at the half-maximal effective concentration (also called “EC50”) and the top and bottom asymptotes of the dose-response curve. […] After total cell viability was measured and DRS was calculated, the DRS of each cancer cell line in the pool was deconvolved for each cancer drug.
(§4) DRS for these anchor cell lines are bolded and italicized. Anchors can be identified based on frequency of the cell lines in pools with high DRS versus low DRS. At a high level, an anchor is predicted to be the cell line with the lowest individual DRS. In order to deconvolute individual cell line DRS values from pool DRS values, the anchor can start with an assumed DRS value of zero. Each pool can then be expressed as a polynomial of variables (cell lines in the pool) and constants (DRS value of the pool). The DRS value of each cell line can then be solved for using the anchor value and overlapping polynomial expressions. When multiple values are calculated for the final target solved from the polynomials, then the anchor has a non-zero value that can be determined based on the difference in the calculated value of the final target.
(§5) Each pool represented a co-culture of three cell lines (“Target Compression”).

[3] = tested on: CCRF-CFM; assay: ATP-based luminescence cell viability (CellTiter Glo), drug response score, CCRF-CFM; set-up: scale not given here; conditions: Target compression
From the text: as §1, §2, §3, §4, §5

[4] = tested on: MOLT-4; assay: Cell viability (CellTiter Glo), compressed perturbation pools with informed pool design, SUM-based deconvolution, MOLT-4; set-up: scale not given here
Procedure: Total cell viability was measured for each sample using an ATP-based luminescence assay (i.e., CellTiter Glo). Each cancer drug was then screened at multiple concentrations ranging from one nM to ten μM in order to generate a dose-response curve and calculate a DRS for each cancer cell line.
Each cancer drug was cultured with target cells individually. At the end of the screen, samples were either analyzed individually or compressed into pools for analysis. The library was compressed alphabetically into ten cohorts, each of which contained seven cancer drugs present in three out of the seven pools, as shown in Table VII. Said another way, the screening platform 210 generated a “7 pick 3” compressed library by assigning the cancer drugs among different pools. […] The library was also compressed into ten cohorts with pools designed based on information known about each cancer drug, as shown in Table VIII. After cell viability measurement and DRS calculation, the DRS of each cancer drug in the samples generated based on the pools were deconvoluted and compared to the DRS for each cancer drug measured individually.
In parallel to the exemplary sample compression screen covered in Table VII, perturbations were compressed into pools and then screened. The pools were designed using drug class as a feature with two compression rules (or simply “rules”). The first rule required that drugs from the same class be separated into different cohorts (i.e., mutually exclusive groups of pools). The second rule separated PI3K pathway inhibitors from MAPK pathway inhibitors, as inhibiting these pathways in parallel is known to be synergistic but has not been clinically effective due to dose-limiting toxicities. A benefit of compressing perturbations is the ability to measure additive, antagonistic, and synergistic effects between drugs in the same pool. However, these effects can negatively impact deconvolution of individual drug effects. Therefore, combinations of drugs for which evidence of clinical toxicity exists can be assigned to different pools in accordance with an informed pooling operation. As new preclinical or clinical evidence of toxic combinations becomes available, the rules implemented by the screening platform 210—and more specifically, its algorithm for compressing members of a library—can be updated accordingly.
In SUM-based deconvolution, an assumption of additivity is used to quantify the individual effects of each perturbation on each target. Additivity implies that each perturbation effect on each target is positively contributing to the overall effect measured for that pool. This is an accurate assumption for certain experiments, such as when targets or samples are compressed. When targets are pooled—or when samples containing different targets are pooled—the effect of each perturbation on each individual target is diluted. In other words, each perturbation has an isolated effect on a target in culture, and the sum total of the isolated effects are measured when pooled. Therefore, SUM-based deconvolution breaks down the sum total measured for a pool and assigns estimated fractional effects to each compressed perturbation or target in the pool. The screening platform 210 used SUM-based deconvolution for all target and sample compression experiments described above.
As mentioned above, SUM-based deconvolution uses the overlapping pool design to identify relative relationships and ranges for the individual effects of each perturbation. When the overlapping pool design is not sufficient to solve for the polynomials representing perturbation effects, an anchor perturbation can be identified by the screening platform 210 based on rank order and assigned an effect size of zero. The anchor perturbation may be the lowest ranked perturbation in the rank order. This then enables the screening platform 210 to solve for the polynomials for the remaining perturbations.

Row | SMILES | drug response score (DRS) [1] | DRS from deconvolution ([2]; 6 Pick 3 pools) | DRS from deconvolution ([2]; 7 Pick 3 pools) | DRS from deconvolution ([3]; 5 Pick 3 pools) | DRS from deconvolution ([3]; 6 Pick 3 pools) | DRS from deconvolution ([3]; 7 Pick 3 pools) | DRS, MOLT-4, SUM [4]
1 | COc1c(OCCCN2CCOCC2)ccc2c1N=C(NC(=O)c1cnc(N)nc1)N1CCN=C21 [Copanlisib] | 2.84 | 0.00 | 2.30 | 15.66 | 15.88 | 15.03 | 
2 | COc1cc2ncnc(Nc3ccc(F)c(Cl)c3)c2cc1OCCCN1CCOCC1 [Gefitinib] |  |  |  |  |  |  | 2.22
3 | N#Cc1ccnc(N2C(=O)CC[C@H]2C(=O)N(c2cncc(F)c2)[C@H](C(=O)NC2CC(F)(F)C2)c2ccccc2Cl)c1 [Ivosidenib] | 0.00 | 0.84 | 0.70 | 1.15 | 0.89 | 1.01 | 
4 | C=CC(=O)Nc1cc(Nc2nccc(-c3cn(C)c4ccccc34)n2)c(OC)cc1N(C)CCN(C)C [Osimertinib] |  |  |  |  |  |  | 0.54
5 | Cc1[nH]c2ccccc2c1CCNCc1ccc(/C=C/C(=O)NO)cc1 [Panobinostat] | 22.40 | 14.37 | 13.23 | 19.98 | 16.57 | 18.55 | 
6 | CC1(C)CCC(CN2CCN(c3ccc(C(=O)NS(=O)(=O)c4ccc(NCC5CCOCC5)c([N+](=O)[O-])c4)c(Oc4cnc5[nH]ccc5c4)c3)CC2)=C(c2ccc(Cl)cc2)C1 [Venetoclax] | 37.40 | 0.00 | 1.88 | 0.28 | 1.51 | 1.07 | 2.44
